# Data taken from patent US12453709B2, “Compositions and methods for treating autism” (priority 2013, dated 2025).
# Key:
# [1] = system: male patients diagnosed with autism; experiment: Study HT 02-121: Social Responsiveness Scale (SRS-2); assay type: in vivo, human; settings: for SRS-2 Total T-Score: patients changing category of severity: placebo 2; for SRS-2 DSM-5 Social, Communication and Interaction T-score: patients with changes in severity categorization / SRS-2 Social Communication T-score: patients with categorical improvement / SRS-2 Social Motivation T-score: patients with categorical changes in clinical severity: placebo 3
# Procedure: This clinical study was a randomized double-blind, placebo-controlled two-cohort, 4-week dose-escalation study that incorporated two open-label treatment groups to assess the safety and efficacy of L1-79 100 mg and 200 mg TID in male patients between the ages of […] years of age diagnosed with autism. The first cohort of 20 patients was comprised of three groups of patients: The first group of five patients received open-label L1-79 100 mg TID and underwent PK and EKG assessments. The remaining two groups in this cohort consisted of 15 patients randomized on a 2:1 basis to receive L1-79 100 mg TID or placebo. The PK and safety data from the open-label L1-79 100 mg TID group was submitted to FDA for review and acceptance before the second cohort was enrolled. The second cohort was procedurally identical to the first. The second cohort of 20 patients was comprised of the same three groups of patients but a dose of 200 mg TID was used instead of 100 mg TID. The key inclusion criteria were as follows: (1) males between 13 and 21 years of age, (2) DSM-5 compliant diagnosis of autism spectrum disorder, confirmed by the Autistic Diagnosis Interview Review (ADIR), and by an ADOS-2 score consistent with a diagnosis of autism, (3) must have been stable on no more than one concomitant medication and no planned changes in psychosocial interventions during the study.
# The primary efficacy endpoint was the determination of the clinical improvement by the investigator as documented by the Clinical Global Impression (CGI) rating scales. Additional efficacy endpoints included: (1) changes from baseline in the Socialization and Communication Domains of the Vineland Adaptive Behavior Scales, Second Edition (VABS II) parent/caregiver rating form, (2) changes from baseline in the ADOS-2 Total Score and subscores, (3) changes in the Social Responsiveness Scale, Second Edition (SRS-2) Total Score and subscales, (4) changes in the ABC-C domains, (5) changes in the Repetitive Behavior Scale-Revised (RBS-R) Total Score and subscales. Given the exploratory design of this study only descriptive statistics were planned.
# In the preliminary study, all forms were completed at the study site in the presence of the investigator. In Cohort 1 of the present study, the VABS-II, SRS-2, ABC-C and RBS-R were filled out at home by the patient/patient's families prior to treatment visits and returned at treatment visits in order to expedite the execution of the study.
# This definition is consistent with accepted standards for judging mid and long term outcomes for experimental treatments studied in nearly every disorder, including autism. […] In ASD, children often go through periods of mild to moderate improvement or worsening in their behavioral, social and emotional symptom regulation related to a variety of identifiable and as yet unidentified factors (Boso, 2010; Jyonouchi, 2011). Thus, in a study of short duration, a ‘baseline’ measure may in fact be at the apex, midpoint or nadir of one of these oscillations.
# The Social Communication and Interaction scale are comprised of the DSM-5 criteria that make up the social communication and social interaction deficits required for the diagnosis of ASD.
# [2] = system: male patients diagnosed with autism; experiment: Study HT 02-121: ECGs and laboratory evaluations; assay type: in vivo, human
# Procedure: The first five patients in each cohort were assigned to receive active medication in an open-label fashion. The patients were treated identically to the randomized patients with the following exceptions: (1) blood samples were drawn at baseline and 1 hour after dosing, and at Week 1, 2, 3 and 4 treatment visits 1 hour after dosing to determine the PK of L1-79, (2) EKGs were assessed at baseline and within 3-days prior to the Week 1, 2, 3 and 4 treatment visits as well as the 1-week and 4-week post-dosing follow-up visits, (3) vital signs, physical exams, and ASD assessments were performed at 1-week postdosing visit, (4) blood and urine samples were drawn at baseline and at Week 1, 2, 3 and 4 treatment visits 1 hour after dosing as well as the 1-week and 4-week post-dosing follow-up visits for safety analyses.
# Safety was the primary endpoint of the study. The following safety endpoints were assessed: ECGs, physical exams, laboratory evaluations (hematology, chemistry and urinalysis), vital signs, including orthostatic blood pressure, adverse events (AEs) and concomitant medications.
# Of note was the observation that half (50%) of the patients on L1-79 developed crystalluria compared to 30% of placebo treated patients. Of those that developed crystalluria during the study, approximately half (50%) had concentrated urine (specific gravity>1.025). […]
compound,measurement,setting,value
"CC(N)(Cc1ccc(O)cc1)C(=O)O (racemic) [L1-79, α-methyl-DL-tyrosine]",SRS-2 Total T-Score: patients changing category of severity,[1]; 100 mg group,2 patients
same,"SRS-2 DSM-5 Social, Communication and Interaction T-score: patients with changes in severity categorization",[1]; 100 mg group,2 patients
same,SRS-2 Social Communication T-score: patients with categorical improvement,[1]; 100 mg group,3 patients
same,SRS-2 Social Motivation T-score: patients with categorical changes in clinical severity,[1]; 100 mg group,4 patients
same,SRS-2 Total T-Score: patients changing category of severity,[1]; 200 mg group,3 patients
same,"SRS-2 DSM-5 Social, Communication and Interaction T-score: patients with changes in severity categorization",[1]; 200 mg group,4 patients
same,SRS-2 Social Communication T-score: patients with categorical improvement,[1]; 200 mg group,4 patients
same,SRS-2 Social Motivation T-score: patients with categorical changes in clinical severity,[1]; 200 mg group,6 patients
same,SRS-2 DSM-5 Restricted and Repetitive Behavior T-score Mean Change from Baseline,"[1]; DB 100 mg TID, Week 4/LOCF",−0.4
same,SRS-2 DSM-5 Restricted and Repetitive Behavior T-score Treatment effect versus placebo,"[1]; DB 100 mg TID, Week 4/LOCF",7.2
same,"SRS-2 DSM-5 Restricted and Repetitive Behavior T-score change, median","[1]; DB 100 mg TID, Week 4/LOCF","−3, 0, 5"
same,"SRS-2 DSM-5 Social, Communication and Interaction T-score Mean Change from Baseline","[1]; DB 100 mg TID, Week 4/LOCF",0.6
same,"SRS-2 DSM-5 Social, Communication and Interaction T-score Treatment effect versus placebo","[1]; DB 100 mg TID, Week 4/LOCF",4.8
same,"SRS-2 DSM-5 Social, Communication and Interaction T-score change, median","[1]; DB 100 mg TID, Week 4/LOCF","−3, 2, 5"
same,SRS-2 Social Communication T-score Mean Change from Baseline,"[1]; DB 100 mg TID, Week 4/LOCF",1.1
same,SRS-2 Social Communication T-score Treatment effect versus placebo,"[1]; DB 100 mg TID, Week 4/LOCF",6.0
same,"SRS-2 Social Communication T-score change, median","[1]; DB 100 mg TID, Week 4/LOCF","−5, 0, 6"
same,SRS-2 Social-Motivation T-score Mean Change from Baseline,"[1]; DB 100 mg TID, Week 4/LOCF",−1.4
same,SRS-2 Social-Motivation T-score Treatment effect versus placebo,"[1]; DB 100 mg TID, Week 4/LOCF",0.3
same,"SRS-2 Social-Motivation T-score change, median","[1]; DB 100 mg TID, Week 4/LOCF","−7, −4, 8"
same,SRS-2 Total T-score Mean Change from Baseline,"[1]; DB 100 mg TID, Week 4/LOCF",−0.4
same,SRS-2 Total T-score Treatment effect versus placebo,"[1]; DB 100 mg TID, Week 4/LOCF",4.8
same,"SRS-2 Total T-score change, median","[1]; DB 100 mg TID, Week 4/LOCF","−3, −1, 3"
same,SRS-2 DSM-5 Restricted and Repetitive Behavior T-score Mean Change from Baseline,"[1]; DB 200 mg TID, Week 4/LOCF",−7.6
same,SRS-2 DSM-5 Restricted and Repetitive Behavior T-score Treatment effect versus placebo,"[1]; DB 200 mg TID, Week 4/LOCF",−0.0
same,"SRS-2 DSM-5 Restricted and Repetitive Behavior T-score change, median","[1]; DB 200 mg TID, Week 4/LOCF","−22, −3, 3"
same,"SRS-2 DSM-5 Social, Communication and Interaction T-score Mean Change from Baseline","[1]; DB 200 mg TID, Week 4/LOCF",−7.6
same,"SRS-2 DSM-5 Social, Communication and Interaction T-score Treatment effect versus placebo","[1]; DB 200 mg TID, Week 4/LOCF",−3.4
same,"SRS-2 DSM-5 Social, Communication and Interaction T-score change, median","[1]; DB 200 mg TID, Week 4/LOCF","−18, −3, 0"
same,SRS-2 Social Communication T-score Mean Change from Baseline,"[1]; DB 200 mg TID, Week 4/LOCF",−8.3
same,SRS-2 Social Communication T-score Treatment effect versus placebo,"[1]; DB 200 mg TID, Week 4/LOCF",−3.4
same,"SRS-2 Social Communication T-score change, median","[1]; DB 200 mg TID, Week 4/LOCF","−16, −4, −1"
same,SRS-2 Social-Motivation T-score Mean Change from Baseline,"[1]; DB 200 mg TID, Week 4/LOCF",−10.6
same,SRS-2 Social-Motivation T-score Treatment effect versus placebo,"[1]; DB 200 mg TID, Week 4/LOCF",−8.9
same,"SRS-2 Social-Motivation T-score change, median","[1]; DB 200 mg TID, Week 4/LOCF","−21, −6, 0"
same,SRS-2 Total T-score Mean Change from Baseline,"[1]; DB 200 mg TID, Week 4/LOCF",−7.7
same,SRS-2 Total T-score Treatment effect versus placebo,"[1]; DB 200 mg TID, Week 4/LOCF",−2.5
same,"SRS-2 Total T-score change, median","[1]; DB 200 mg TID, Week 4/LOCF","−19, 3, 0"
same,"average improvement of SRS-2 Total, DSM-5 Social Communication and Interaction, Social Communication and Social Motivation T-scores",[1]; L1-79 200 mg treated group,~8 points
same,SRS-2 T-scores: magnitude and number/percent of responders compared to placebo,"[1]; L1-79 200 mg, Week 4/LOCF",greater
same,changes from baseline EKGs,[2]; any of the patients,No clinically significant changes
same,patients who developed crystalluria,"[2]; patients on L1-79, placebo 30%",50%
